Results from patent US8383629B2, “Inhibitors of 11β-hydroxysteroid dehydrogenase type 1” (Vitae Pharmaceuticals, Inc., priority 2008, dated 2013).

Target: T1, human 11β-HSD1 (Homo sapiens, UniProt P28845)
T1 construct: expressed in transfected cells; host or cells: CHO cells (microsomes)
Assay: Inhibition of microsomal preparation of 11β-HSD1 (SPA, Biological Test Example 1)
Type: biochemical
Conditions: for inhibition at 0.1 µM: 100 nM; for IC50: microsomes from CHO cells overexpressing human 11β-HSD1, read-out: IC50 Range; for inhibition at 0.111 µM: 111 nM
Procedure: The inhibition of microsomal preparation of 11β-HSD1 by compounds of the invention was measured essentially as previously described (K. Solly, S. S. Mundt, H. J. Zokian, G. J. Ding, A. Hermanowski-Vosatka, B. Strulovici, and W. Zheng, High-Throughput Screening of 11-Beta-Hydroxysteroid Dehydrogenase Type 1 in Scintillation Proximity Assay Format. Assay Drug Dev Technol 3 (2005) 377-384). All reactions were carried out at rt in 96 well clear flexible PET Microbeta plates (PerkinElmer). The assay begins by dispensing 49 μl of substrate solution (50 mM HEPES, pH 7.4, 100 mM KCl, 5 mM NaCl, 2 mM MgCl2, 2 mM NADPH and 160 nM [^3H]cortisone (1 Ci/mmol)) and mixing in 1 μL of the test compounds in DMSO previously diluted in half-log increments (8 points) starting at 0.1 mM. After a 10 minute pre-incubation, 50 μL of enzyme solution containing microsomes isolated from CHO cells overexpressing human 11β-HSD1 (10-20 μg/ml of total protein) was added, and the plates were incubated for 90 minutes at rt. The reaction was stopped by adding 50 μl of the SPA beads suspension containing 10 μM 18β-glycyrrhetinic acid, 5 mg/ml protein A coated YSi SPA beads (GE Healthcare) and 3.3 μg/ml of anti-cortisol antibody (East Coast Biologics) in Superblock buffer (Bio-Rad). The plates were shaken for 120 minutes at rt, and the SPA signal corresponding to [^3H]cortisol was measured on a Microbeta plate reader.

T1 sequence (P28845 whole entry): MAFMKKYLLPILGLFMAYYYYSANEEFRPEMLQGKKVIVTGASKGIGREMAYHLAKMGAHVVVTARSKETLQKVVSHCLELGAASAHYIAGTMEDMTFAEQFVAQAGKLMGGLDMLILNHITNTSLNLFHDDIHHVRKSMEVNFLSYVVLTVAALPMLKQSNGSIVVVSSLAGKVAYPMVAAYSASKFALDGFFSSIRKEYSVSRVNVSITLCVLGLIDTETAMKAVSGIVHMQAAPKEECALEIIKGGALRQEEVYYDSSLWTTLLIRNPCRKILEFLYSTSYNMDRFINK

Row | SMILES | inhibition at 0.1 µM | IC50 | inhibition at 0.111 µM
1 | O=C(/C=C/c1ccccc1C(F)(F)F)N1CCC2(CC1)CC(O)c1cccc(Br)c12 (racemic) [EXAMPLE 16, (±)-(E)-1-(7-bromo-3-hydroxy-2,3-dihydrospiro[indene-1,4′-piperidine]-1′-yl)-3-(2-(trifluoromethyl)phenyl)prop-2-en-1-one] | 95.3% | < 100 nM | 98.6%
2 | O=C1CC2(CCN(C(=O)CNc3ccccc3C(F)(F)F)CC2)c2c(Br)cccc21 [EXAMPLE 107] | – | 100 to 1000 nM | –
3 | CN1C(=O)c2ccccc2C12CCN(C(=O)CCc1ccccc1C(F)(F)F)CC2 [EXAMPLE 55, 2-methyl-1′-(3-(2-(trifluoromethyl)phenyl)propanoyl)spiro[isoindoline-1,4′-piperidin]-3-one] | – | < 100 nM | 76.5%
4 | CC(=O)N1Cc2ccccc2C2(CCN(C(=O)/C=C/c3ccccc3C(F)(F)F)CC2)C1 [EXAMPLE 23, (E)-1-(2-acetyl-2,3-dihydro-1H-spiro[isoquinoline-4,4′-piperidine]-1′-yl)-3-(2-(trifluoromethyl)phenyl)prop-2-en-1-one] | – | < 100 nM | 94.9%
5 | O=C1NC2(CCN(C(=O)Cc3ccccc3C(F)(F)F)CC2)c2c(Cl)cccc21 [EXAMPLE 45, 7-chloro-1′-(2-(2-(trifluoromethyl)phenyl)acetyl)spiro[isoindoline-1,4′-piperidin]-3-one] | – | 100 to 1000 nM | 43.2%
6 | O=C(NCc1ccccc1-c1ccccc1)N1CCC2(CC1)OCc1ccccc12 [EXAMPLE 85, N-(biphenyl-2-ylmethyl)-3H-spiro[isobenzofuran-1,4′-piperidine]-1′-carboxamide] | – | 100 to 1000 nM | 19.4%
7 | O=C(O)CC1CC2(CCN(C(=O)CCc3ccccc3Cl)CC2)c2c(Cl)cccc21 (centres unmarked) [EXAMPLE 74, 2-(7-chloro-1′-(3-(2-chlorophenyl)propanoyl)-2,3-dihydrospiro[indene-1,4′-piperidine]-3-yl)acetic acid] | – | < 100 nM | 89.5%
8 | NC1CC2(CCN(C(=O)/C=C/c3ccccc3C(F)(F)F)CC2)c2c(Br)cccc21 (racemic) [EXAMPLE 18, (±)-(E)-1-(3-amino-7-bromo-2,3-dihydrospiro[indene-1,4′-piperidine]-1′-yl)-3-(2-(trifluoromethyl)phenyl)prop-2-en-1-one] | – | < 100 nM | 93.3%
9 | CC(C)(C)OC(=O)N1Cc2ccccc2C2(CCN(C(=O)CCc3ccccc3C(F)(F)F)CC2)C1 [EXAMPLE 57, tert-butyl 1′-(3-(2-(trifluoromethyl)phenyl)propanoyl)-1H-spiro[isoquinoline-4,4′-piperidine]-2(3H)-carboxylate] | – | 100 to 1000 nM | 37.6%
10 | O=C(CCc1ccccc1C(F)(F)F)N1CCC2(CC1)CC(O)c1cccc(Br)c12 (centres unmarked) [EXAMPLE 64, 1-(7-bromo-3-hydroxy-2,3-dihydrospiro[indene-1,4′-piperidine]-1′-yl)-3-(2-(trifluoromethyl)phenyl)propan-1-one] | – | < 100 nM | 100%
11 | O=C(O)CC1CC2(CCN(C(=O)/C=C/c3ccccc3C(F)(F)F)CC2)c2c(Br)cccc21 (single isomer, unassigned; isomer 1) [EXAMPLE 2.1, (±)-(E)-2-(7-bromo-1′-(3-(2-(trifluoromethyl)phenyl)acryloyl)-2,3-dihydrospiro[indene-1,4′-piperidine]-3-yl)acetic acid isomer 1] | 96.6% | < 100 nM | –
12 | COc1ccc2c(c1)CCNC21CCN(C(=O)CCc2ccccc2C(F)(F)F)CC1 [EXAMPLE 62, 1-(6-methoxy-3,4-dihydro-2H-spiro[isoquinoline-1,4′-piperidine]-1′-yl)-3-(2-(trifluoromethyl)phenyl)propan-1-one] | – | < 100 nM | 87.2%
13 | CN1C(=O)C2(CCN(C(=O)Cc3ccccc3C(F)(F)F)CC2)c2ccccc21 [EXAMPLE 48, 1-methyl-1′-(2-(2-(trifluoromethyl)phenyl)acetyl)spiro[indoline-3,4′-piperidin]-2-one] | 80.6% | < 100 nM | 86.3%
14 | CCOc1ccccc1CNC(=O)N1CCC2(CC1)CC(CC(=O)O)c1cccc(Br)c12 (centres unmarked) [EXAMPLE 84, 2-(7-bromo-1′-(2-ethoxybenzylcarbamoyl)-2,3-dihydrospiro[indene-1,4′-piperidine]-3-yl)acetic acid] | – | 100 to 1000 nM | 42.6%
15 | O=C(O)CC1CC2(CCN(C(=O)NCc3ccccc3C(F)(F)F)CC2)c2c(Br)cccc21 (centres unmarked) [EXAMPLE 94, 2-(7-bromo-1′-(2-(trifluoromethyl)benzylcarbamoyl)-2,3-dihydrospiro[indene-1,4′-piperidine]-3-yl)acetic acid] | – | < 100 nM | 75.7%
16 | O=C1NC2(CCN(C(=O)/C=C/c3ccccc3C(F)(F)F)CC2)c2c(Cl)cc(Cl)cc21 [EXAMPLE 29, (E)-5,7-dichloro-1′-(3-(2-(trifluoromethyl)phenyl)acryloyl)spiro[isoindoline-1,4′-piperidin]-3-one] | – | < 100 nM | 94.2%
17 | COc1ccc2c(c1)CCNC21CCN(C(=O)CCc2ccccc2C)CC1 [EXAMPLE 63, 1-(6-methoxy-3,4-dihydro-2H-spiro[isoquinoline-1,4′-piperidine]-1′-yl)-3-o-tolylpropane-1-one] | – | 100 to 1000 nM | 22.5%
18 | O=C1NC2(CCN(C(=O)CCc3ccccc3C(F)(F)F)CC2)c2c(Cl)cccc21 [EXAMPLE 65, 7-chloro-1′-(3-(2-(trifluoromethyl)phenyl)propanoyl)spiro[isoindoline-1,4′-piperidin]-3-one] | – | < 100 nM | 87.7%

Further lines, results first:

Row | inhibition at 0.1 µM | IC50 | inhibition at 0.111 µM | SMILES
19 | 91.2% | < 100 nM | – | O=C(/C=C/c1ccccc1C(F)(F)F)N1CCC2(CC1)C(=O)Nc1ccc(F)cc12 [EXAMPLE 41, (E)-5-fluoro-1′-(3-(2-(trifluoromethyl)phenyl)acryloyl)spiro[indoline-3,4′-piperidin]-2-one]
20 | – | 100 to 1000 nM | 26.3% | CN1C(=O)C2(CCN(C(=O)CCc3ccccc3C(F)(F)F)CC2)c2cc(C(N)=O)ccc21 [EXAMPLE 77, 1-methyl-2-oxo-1′-(3-(2-(trifluoromethyl)phenyl)propanoyl)spiro[indoline-3,4′-piperidine]-5-carboxamide]
21 | – | < 100 nM | 71.2% | CCN1C(=O)C2(CCN(C(=O)/C=C/c3ccccc3C(F)(F)F)CC2)c2cc(C(=O)OC)ccc21 [EXAMPLE 40, (E)-methyl 1-ethyl-2-oxo-1′-(3-(2-(trifluoromethyl)phenyl)acryloyl)spiro[indoline-3,4′-piperidine]-5-carboxylate]
22 | – | 100 to 1000 nM | 38.2% | CN(C)C(=O)c1ccc2c(c1)C1(CCN(C(=O)/C=C/c3ccccc3C(F)(F)F)CC1)C(=O)N2C [EXAMPLE 34, (E)-N,N,1-trimethyl-2-oxo-1′-(3-(2-(trifluoromethyl)phenyl)acryloyl)spiro[indoline-3,4′-piperidine]-5-carboxamide]
23 | 95.3% | < 100 nM | 92.6% | O=C1CC2(CCN(C(=O)/C=C/c3ccccc3C(F)(F)F)CC2)c2c(Br)cccc21 [EXAMPLE 15, (E)-7-bromo-1′-(3-(2-(trifluoromethyl)phenyl)acryloyl)spiro[indene-1,4′-piperidin]-3(2H)-one]
24 | – | < 100 nM | 90.3% | Cc1ccc2c(c1)C(CC(=O)O)CC21CCN(C(=O)/C=C/c2ccccc2C(F)(F)F)CC1 (racemic) [EXAMPLE 12, (±)-(E)-2-(5-methyl-1′-(3-(2-(trifluoromethyl)phenyl)acryloyl)-2,3-dihydrospiro[indene-1,4′-piperidine]-3-yl)acetic acid]
25 | – | < 100 nM | 64.8% | CN1C(=O)C2(CCN(C(=O)/C=C/c3ccccc3C(F)(F)F)CC2)c2cc(C#N)ccc21 [EXAMPLE 39, (E)-1-methyl-2-oxo-1′-(3-(2-(trifluoromethyl)phenyl)acryloyl)spiro[indoline-3,4′-piperidine]-5-carbonitrile]
26 | 99.9% | < 100 nM | – | CN1C(=O)C2(CCN(C(=O)/C=C/c3ccccc3C(F)(F)F)CC2)c2ccccc21 [EXAMPLE 31, (E)-1-methyl-1′-(3-(2-(trifluoromethyl)phenyl)acryloyl)spiro[indoline-3,4′-piperidin]-2-one]
27 | – | 100 to 1000 nM | 7.1% | CN1CCN(C(=O)c2ccc3c(c2)C2(CCN(C(=O)/C=C/c4ccccc4C(F)(F)F)CC2)C(=O)N3C)CC1 [EXAMPLE 37, (E)-1-methyl-5-(4-methylpiperazine-1-carbonyl)-1′-(3-(2-(trifluoromethyl)phenyl)acryloyl)spiro[indoline-3,4′-piperidin]-2-one]
28 | 85.6% | < 100 nM | 90.9% | NC(=O)CC1CC2(CCN(C(=O)/C=C/c3ccccc3C(F)(F)F)CC2)c2cc(F)ccc21 (racemic) [EXAMPLE 14, (±)-(E)-2-(6-fluoro-1′-(3-(2-(trifluoromethyl)phenyl)acryloyl)-2,3-dihydrospiro[indene-1,4′-piperidine]-3-yl)acetamide]
